Key:
[1] = Storage test of reduced PQQ (oxidation to oxidized PQQ); type: physicochemical
Procedure: In Examples and Comparative Examples, the UV measurements were performed on a HITACHI U-2000 Spectrophotometer.
In 500 g of water, […] of pyrroloquinoline quinone disodium was dissolved to a concentration of 0.01 mol/L. In 100 g of water, 3.51 g of L-ascorbic acid was dissolved to a concentration of 0.2 mol/L.
20 g of the pyrroloquinoline quinone disodium solution mentioned above having a concentration of 0.01 mol/L (pH 3.5) was mixed with 20 g of an L-ascorbic acid solution having a concentration of 0.2 mol/L at room temperature. The molar ratio of L-ascorbic acid is 20 with respect to pyrroloquinoline quinone. The pH of the solution was 2 as measured with a pH test strip. The mixed solution was allowed to react at room temperature overnight (pH 2). After the reaction, a solid of the reduced form was precipitated. Under this condition, it is believed that at least 15-fold moles of L-ascorbic acid is present, even allowing for the amounts consumed in the reduction reaction and in air oxidization.
The solid of the reduced form obtained in Example 6 was separated through centrifugation. The supernatant was removed, and the solid was washed with water. This process removed L-ascorbic acid. An aqueous sodium hydroxide solution was added thereto to adjust the value of pH to 7. All the reduced form was converted to the oxidized form in 30 minutes.
1 g of a pyrroloquinoline quinone disodium solution having a concentration of 0.01 mol/L (pH 3.5) was mixed with 1 g of an L-ascorbic acid solution having a concentration of 0.014 mol/L. When 1 g of this mixed solution was transferred to a 15-ml container and brought into contact with air, the solution included 14% of oxidized PQQ (pH 3). After this oxidized PQQ-containing reduced PQQ was left at 30° C. for one week, 18% of oxidized PQQ was included.

[2] = Non-patent document 3; cited from earlier work

For `O=C(O)c1cc(C(=O)O)c2c(n1)c(O)c(O)c1cc(C(=O)O)[nH]c12` [reduced PQQ, reduced pyrroloquinoline quinone], the “time in which all the reduced form was converted to the oxidized form” value ([1]; Comparative Example 3: solid washed with water, L-ascorbic acid removed, pH adjusted to 7 with aqueous sodium hydroxide) was 30 min, the “state of the reduced form after storage” value ([1]; Example 7: aqueous reaction solution, pH 2, at least 15-fold moles of L-ascorbic acid present, stored at room temperature for one week) was “maintained in the reduced state” and the “oxidized PQQ included” value ([1]; Example 8: 0.01 mol/L PQQ disodium + 0.014 mol/L L-ascorbic acid mixed solution, pH 3, brought into contact with air, before storage) was 14%. The “oxidized PQQ included” value ([1]; Example 8: same solution after being left at 30° C. for one week) was 18%, the “antioxidative activity compared with ascorbic acid” value [2] was “greater antioxidative activity than that exhibited by ascorbic acid” and the “antioxidative activity compared with conventional PQQ” value [2] was “extremely higher antioxidative activity than that exhibited by the conventional PQQ”.
